Test results reported in patent US20230295201A1 (Gilead Sciences, Inc., priority 2020, published 2023).
Read-outs that look alike come from different tables or passages of the source.

Key:
Assay type in all cases: cell-based
RSV strain A2 = test: RSV HEp-2 EC50 (infectious cytopathic cell protection assay); details: read-out: RSV HEp-2 EC50
How it was run: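 Percent inhibition of RSV-induced cytopathic effect came from remaining cell viability (CellTiter-Glo luminescence) after 4 days at 37° C. Compounds in 3-fold serial dilutions were exposed to an infectious mix of titered A2 virus and HEp-2 cells at 50,000/ml, with 0% and 100% inhibition control standards.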

RSV A2 = test: RSV NHBE EC50 (RSV A2 antiviral assay in normal human bronchial epithelial cells); details: read-out: RSV NHBE EC50
HRV16 = HRV16 HELA EC50 (cytopathic effect in H1-HeLa cells)
How it was run: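 Read-out is luminescent cell viability (CellTiter-Glo) after 96 h of infection at 33 °C, scaled between uninfected and infected-untreated wells. Before infection with titrated virus, compounds went onto H1-HeLa cells as triplicate 3-fold dilution series.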

DENV2 replicon = test: DENV-2 Huh-7 Rep EC50 (replicon luminescence); details: read-out: DENV-2 Huh-7 Rep EC50
How it was run: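 EC50 derived from luminescence dose-response, normalised to DMSO-only 0% inhibition wells, after 1.5 h with EnduRen substrate. Compounds were first exposed for 48 h at 37° C to DENV2 replicon Huh-7 cells (5,000/well).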

[1] = human respiratory syncytial virus, NHBE, 96 h, NHBE cells, RSV A2, 4 days
[2] = 96 h, H1-HeLa cells, 33° C., read-out: HRV16 HELA EC50
[3] = Dengue virus, DENV2, Huh-7, 48 h, Huh-7 replicon cells, 48 hours
[4] = H1-HeLa cells, 96 h, 33° C.; read-out: HRV16 HELA EC50
[5] = human respiratory syncytial virus, HEp-2, 96 h, HEp-2 cells, RSV A2, 4 days
[6] = human respiratory syncytial virus, HEp-2, 96 h
[7] = human respiratory syncytial virus, NHBE, 96 h
[8] = 96 h, read-out: HRV16 HELA EC50
[9] = Dengue virus, DENV2, Huh-7, 48 h

Compound | EC50 (RSV strain A2; HEp-2 cells, RSV A2, 4 days) [nM] | EC50 (RSV A2; [1]) [nM] | EC50 (HRV16; [2]) [µM] | EC50 (DENV2 replicon; [3]) [µM] | EC50 (RSV A2; NHBE cells, RSV A2, 4 days) [nM] | EC50 (RSV strain A2; [5]) [nM] | further results
C[C@H](NP(=O)(OC[C@@]1(C#N)O[C@@H](c2ccc3c(N)ncnn23)[C@H](O)[C@@H]1O)Oc1ccccc1)C(=O)OC1CCOCC1 (single isomer, unassigned) [Example 56] | 4170 | 2240 | 7.96 | > 50 |  |  | 
C[C@H](NP(=O)(OC[C@@]1(C#N)O[C@@H](c2ccc3c(N)ncnn23)[C@H](O)[C@@H]1O)Oc1ccccc1)C(=O)OC1CCOCC1 (single isomer, unassigned) [Example 57] | 1480 |  |  |  | > 4180 |  | EC50 (HRV16; [4]): 5.48 µM; EC50 (DENV2 replicon; Huh-7 replicon cells, 48 hours): > 50 µM
CC(C)OC(=O)[C@H](C)N[P@@](=O)(OC[C@@]1(C#N)O[C@@H](c2ccc3c(N)ncnn23)[C@H](O)[C@@H]1O)Oc1ccccc1 (single isomer, unassigned) [Example 78] |  | 1770 | 2.26 | > 50 |  | 2040 | 
CCC(CC)COC(=O)[C@@H](C)NP(=O)(OC[C@@]1(C#N)O[C@@H](c2ccc3c(N)ncnn23)[C@H](O)[C@@H]1O)Oc1ccccc1 (single isomer, unassigned) [Example 84] | 8070 |  |  |  | 1130 |  | EC50 (HRV16; [4]): 19.9 µM; EC50 (DENV2 replicon; Huh-7 replicon cells, 48 hours): > 50 µM
CC[C@H](NP(=O)(OC[C@@]1(C#N)O[C@@H](c2ccc3c(N)ncnn23)[C@H](O)[C@@H]1O)Oc1ccccc1)C(=O)OC1CCCC1 (single isomer, unassigned) [Example 111] | 3970 |  | 25.3 | > 50 | > 1480 |  | 
N#C[C@]1(COP(=O)(NCC(=O)OC2CCCC2)Oc2ccccc2)O[C@@H](c2ccc3c(N)ncnn23)[C@H](O)[C@@H]1O (single isomer, unassigned) [Example 113] |  | 352 | 2.64 | 42.7 |  | 611 | 
N#C[C@]1(COP(=O)(NCC(=O)OC2CCCC2)Oc2ccccc2)O[C@@H](c2ccc3c(N)ncnn23)[C@H](O)[C@@H]1O (single isomer, unassigned) [Example 114] | 974 |  |  |  | 255 |  | EC50 (HRV16; [4]): 4.7 µM; EC50 (DENV2 replicon; Huh-7 replicon cells, 48 hours): > 50 µM
CCC(CC)COC(=O)[C@H](CC(C)C)NP(=O)(OC[C@@]1(C#N)O[C@@H](c2ccc3c(N)ncnn23)[C@H](O)[C@@H]1O)Oc1ccccc1 (single isomer, unassigned) [Example 129] | 42900 |  | 41.6 | 26.7 | > 5000 |  | 
C[C@H](NP(=O)(OC[C@@]1(C#N)O[C@@H](c2ccc3c(N)ncnn23)[C@H](O)[C@@H]1O)Oc1ccccc1)C(=O)OC1CCCCCC1 (single isomer, unassigned) [Example 136] | 2770 |  | 0.577 | 51.1 | 95 |  | 
C[C@H](NP(=O)(OC[C@@]1(C#N)O[C@@H](c2ccc3c(N)ncnn23)[C@H](O)[C@@H]1O)Oc1ccccc1)C(=O)OC1CCC(F)(F)CC1 (single isomer, unassigned) [Example 176] | 161 |  | 0.547 |  | 1640 |  | EC50 (DENV2 replicon; Huh-7 replicon cells, 48 hours): 28.6 µM
C[C@H](NP(=O)(OC[C@@]1(C#N)O[C@@H](c2ccc3c(N)ncnn23)[C@H](O)[C@@H]1O)Oc1ccccc1)C(=O)O[C@H]1CC[C@@H](C(F)(F)F)CC1 (single isomer, unassigned) [Example 180] | 142 |  | 0.851 | 6.62 | 833 |  | 
C[C@@H](NP(=O)(OC[C@@]1(C#N)O[C@@H](c2ccc3c(N)ncnn23)[C@H](O)[C@@H]1O)Oc1ccccc1)C(=O)O[C@H]1CC[C@H](C(F)(F)F)CC1 (single isomer, unassigned) [Example 195] |  | 678 |  | > 100 |  | 2590 | EC50 (HRV16; [4]): 2.55 µM
CCC(CC)COC(=O)[C@H](C)N[P@@](=O)(OC[C@@]1(C#N)O[C@@H](c2ccc3c(N)ncnn23)[C@H](O)[C@@H]1O)Oc1ccccc1 (single isomer, unassigned) [Example 207] |  | 91 | 0.183 | 4.84 |  | 124 | 
CCOC(=O)C1CCCN1P(=O)(OC[C@@]1(C#N)O[C@@H](c2ccc3c(N)ncnn23)[C@H](O)[C@@H]1O)Oc1ccccc1 (stereo in doubt) [Example 117, (2R)-ethyl 1-((((2R,3S,4R,5S)-5-(4-aminopyrrolo[2,1-f][1,2,4]triazin-7-yl)-2-cyano-3,4-dihydroxytetrahydrofuran-2-yl)methoxy)(phenoxy)phosphoryl)pyrrolidine-2-carboxylate] |  |  |  |  |  |  | EC50 (RSV strain A2; [6]): > 100000 nM; EC50 (RSV A2; [7]): > 5000 nM; EC50 (HRV16; [8]): > 100 µM; EC50 (DENV2 replicon; [9]): > 100 µM
CCCCOC(=O)C1CCCN1P(=O)(OC[C@@]1(C#N)O[C@@H](c2ccc3c(N)ncnn23)[C@H](O)[C@@H]1O)Oc1ccccc1 (stereo in doubt) [Example 124, (2R)-butyl 1-((((2R,3S,4R,5S)-5-(4-aminopyrrolo[2,1-f][1,2,4]triazin-7-yl)-2-cyano-3,4-dihydroxytetrahydrofuran-2-yl)methoxy)(phenoxy)phosphoryl)pyrrolidine-2-carboxylate] |  |  |  |  |  |  | EC50 (RSV strain A2; [6]): > 100000 nM; EC50 (RSV A2; [7]): > 5000 nM; EC50 (HRV16; [8]): > 86.4 µM; EC50 (DENV2 replicon; [9]): > 100 µM
CCOC(=O)[C@H](Cc1ccccc1)NP(=O)(OC[C@@]1(C#N)O[C@@H](c2ccc3c(N)ncnn23)[C@H](O)[C@@H]1O)Oc1ccccc1 (stereo partly drawn) [Example 3, (2S)-ethyl 2-(((((2R,3S,4R,5S)-5-(4-aminopyrrolo[2,1-f][1,2,4]triazin-7-yl)-2-cyano-3,4-dihydroxytetrahydrofuran-2-yl)methoxy)(phenoxy)phosphoryl)amino)-3-phenylpropanoate] |  | 1690 | 8.96 | > 100 |  | 4090 | 
C[C@H](NP(=O)(N[C@@H](C)C(=O)OC1CCCCC1)OC[C@@]1(C#N)O[C@@H](c2ccc3c(N)ncnn23)[C@H](O)[C@@H]1O)C(=O)OC1CCCCC1 [Example 14] |  |  |  |  |  |  | EC50 (RSV strain A2; human respiratory syncytial virus, 96 h, HEp-2 cells, RSV A2, 4 days): 3650 nM; EC50 (RSV A2; human respiratory syncytial virus, 96 h, NHBE cells, RSV A2, 4 days): 1270 nM; EC50 (HRV16; [4]): 12.4 µM; EC50 (DENV2 replicon; [9]): > 100 µM
C[C@H](NP(=O)(OC[C@@]1(C#N)O[C@@H](c2ccc3c(N)ncnn23)[C@H](O)[C@@H]1O)Oc1ccccc1)C(=O)O[C@H]1CCN(C)C1 (stereo partly drawn) [Example 15, (S)-1-methylpyrrolidin-3-yl ((((2R,3S,4R,5S)-5-(4-aminopyrrolo[2,1-f][1,2,4]triazin-7-yl)-2-cyano-3,4-dihydroxytetrahydrofuran-2-yl)methoxy)(phenoxy)phosphoryl)-L-alaninate] |  | 3260 | 11.4 | > 50 |  | 4330 | 
C[C@H](NP(=O)(OC[C@@]1(C#N)O[C@@H](c2ccc3c(N)ncnn23)[C@H](O)[C@@H]1O)Oc1ccccc1)C(=O)O[C@H]1CC[C@H](C(F)(F)F)CC1 (stereo partly drawn) [Example 16, trans-4-(trifluoromethyl)cyclohexyl ((((2R,3S,4R,5S)-5-(4-aminopyrrolo[2,1-f][1,2,4]triazin-7-yl)-2-cyano-3,4-dihydroxytetrahydrofuran-2-yl)methoxy)(phenoxy)phosphoryl)-L-alaninate] |  | 104 | 1.31 | 70.8 |  | 1290 | 
C[C@H](NP(=O)(OC[C@@]1(C#N)O[C@@H](c2ccc3c(N)ncnn23)[C@H](O)[C@@H]1O)Oc1ccccc1)C(=O)OCC1CCOCC1 (stereo partly drawn) [Example 20, (tetrahydro-2H-pyran-4-yl)methyl ((((2R,3S,4R,5S)-5-(4-aminopyrrolo[2,1-f][1,2,4]triazin-7-yl)-2-cyano-3,4-dihydroxytetrahydrofuran-2-yl)methoxy)(phenoxy)phosphoryl)-L-alaninate] |  | 2230 | 4.88 | > 50 |  | 877 | 
C[C@H](NP(=O)(OC[C@@]1(C#N)O[C@@H](c2ccc3c(N)ncnn23)[C@H](O)[C@@H]1O)Oc1ccccc1)C(=O)O[C@H]1CC[C@H](C(C)(C)C)CC1 (stereo partly drawn) [Example 21, trans-4-(tert-butyl)cyclohexyl ((((2R,3S,4R,5S)-5-(4-aminopyrrolo[2,1-f][1,2,4]triazin-7-yl)-2-cyano-3,4-dihydroxytetrahydrofuran-2-yl)methoxy)(phenoxy)phosphoryl)-L-alaninate] |  | 27 | 0.23 | 11 |  | 79 | 
